Assay results reported in paper PMC11237774, “On-target, dual aminopeptidase inhibition provides cross-species antimalarial activity” (mBio, 2024).
Where two headings read alike, the source gives them in different places. One block for each compound: values may come before it.

Assays:
[1] = test system: PfNF54-s16-GFP early (I–III) stage gametocytes; assay: Image-based gametocyte viability assay; assay type: cell-based, P. falciparum; settings: Plasmodium falciparum, 72 h, read-out: IC50 Early-stage Gametocytes (mean ± SD)
Experimental: (§1) Viability assays were performed as described previously ([32], [33]) against PfNF54-s16-GFP early(I–III), late (IV–V), and mature (V) stage gametocytes. Gametocytes were assessed at the appropriate time points following gametogenesis; early stage (day 2), late stage (day 8), and mature stage (day 12). Compounds diluted in 4% DMSO were transferred into 384-well imaging plates; gametocytes prepared as described previously (35) were added, and plates were incubated for 72 h in 5% CO2, 5% O2, and 60% humidity at 37°C. After 72 h incubation, 5 µL of MitoTracker Red CMH2XRos in phosphate buffered saline (PBS) was added per well, and plates were incubated overnight. Image acquisition and analysis were undertaken on the Opera QEHS micro-plate confocal imaging system. An Acapella-based script using the CMH2XRos fluorescent signal and the GFP-designated object quantifying viable stage-dependent parasite morphology identified gametocytes. Gametocyte viability was calculated as a percentage of the positive (5 µM puromycin) and negative (0.4% DMSO) controls. IC50 values were calculated using a 4-parameter log dose, non-linear regression analysis, with sigmoidal dose response (variable slope) curve fit using GraphPad Prism (ver 4.0). No constraints were used in the curve fit. Chloroquine, artesunate, pyronaridine, pyrimethamine, dihydroartemisinin (DHA), and methylene blue were used as control compounds. Experiments were performed as two or three biological replicates in duplicate.

[2] = test system: PfNF54-s16-GFP late (IV–V) stage gametocytes; assay: Image-based gametocyte viability assay; assay type: cell-based, P. falciparum; settings: Plasmodium falciparum; stages IV–V, 72 h; read-out: IC50 Late-stage Gametocytes (mean ± SD)
Experimental: as §1, with “Chloroquine, artesunate, pyronaridine, pyrimethamine, dihydroartemisinin (DHA), and methylene blue were used as control compounds.” left out

[3] = test system: PfNF54-s16-GFP mature (V) stage gametocytes; assay: Image-based gametocyte viability assay; assay type: cell-based, P. falciparum; settings: Plasmodium falciparum, 72 h, read-out: IC50 Mature-stage Gametocytes (mean ± SD)
Experimental: as §1, with “Chloroquine, artesunate, pyronaridine, pyrimethamine, dihydroartemisinin (DHA), and methylene blue were used as control compounds.” left out

[4] = test system: Pf3D7; assay: Parasite reduction ratio assay; assay type: cell-based, P. falciparum
Experimental: Assays were performed as described previously with some alterations ([37]). […] Specifically, media containing compound was placed in wells every 24 h for up 120 h. […] Parasite growth was measured at day 21 using SYBR green I as described above. Fluorescence was used to determine at what treatment day wells became positive for growth when compared with the well before it; greater than double the fluorescence was determined to be a positive well. […] Experiments were performed in two or three biological replicates in quadruplicate.

[5] = test system: P. falciparum clinical isolates; assay: Ex vivo drug susceptibility assay (schizont maturation) on clinical isolates; assay type: cell-based
Experimental: (§2) Plasmodium isolates were collected from patients attending public health clinics in Timika (Papua, Indonesia), a region endemic for multidrug-resistant strains of P. vivax and P. falciparum ([38][–][40]). Patients with symptomatic malaria presenting to an outpatient facility were recruited into the study if infected with either P. falciparum or P. vivax, with a parasitemia of between 2,000 µL^−1 and 80,000 µL^−1, and the majority (>60%) of asexual parasites at the ring stage of development. Venous blood (5 mL) was collected by venipuncture, and after removal of patient white blood cells using Plasmodipur filters (EuroProxima B.V., The Netherlands), packed infected red blood cells (iRBCs) were used for the ex vivo drug susceptibility assay.
(§3) Drug plates were pre-dosed by diluting the compounds in 50% methanol followed by lyophilization and storage at 4°C. Drug susceptibility of P. vivax and P. falciparum isolates was measured using a protocol modified from the WHO microtest as described previously ([40], [41]). […] A candle jar was used to mature the parasites at 37.0°C for 35–56 h. […] Thick blood films made from each well were stained with 5% Giemsa solution for 30 min and examined microscopically. The number of schizonts per 200 asexual-stage parasites was determined for each drug concentration and normalized to the control well without drug. The dose response data were analyzed using non-linear regression analysis, and the EC50 value was derived using an inhibitory sigmoid Emax model (In Vitro Analysis and Reporting Tool [IVART] [42, 43]).

[6] = test system: P. vivax clinical isolates; assay: as above; assay type: cell-based
Experimental: as §2, §3

[7] = test system: P. falciparum Dd2 parasites; assay: Fractional inhibitory concentration, artemisinin and MMV1557817 interaction; assay type: cell-based
Experimental: Fractional inhibitory concentrations (FIC) were determined as previously described ([44]). […] The FIC for each drug was determined by EC50 of drug in a mixture/EC50 of drug alone, and the sum of FIC was determined by the addition of the two individual FIC values. Synergistic FIC is described as <1, additive = 1 < 2, and antagonism > 2 ([44]).

[8] = test system: MMV1557817-resistant parasites; assay: 72 h killing assay, MMV1557817-resistant parasites versus parental Dd2; assay type: cell-based, P. falciparum
[9] = Plasmodium falciparum, ex vivo clinical isolates, n = 15, read-out: P. falciparum median EC50 (range)
[10] = Plasmodium vivax, ex vivo clinical isolates, n = 6, read-out: P. vivax median EC50 (range)
[11] = ex vivo clinical isolates, n = 6, read-out: P. vivax median EC50 (range)

SMILES: COc1ccc2nc3cc(Cl)ccc3c(Nc3cc(CN4CCCC4)c(O)c(CN4CCCC4)c3)c2n1 [pyronaridine]
- IC50 ([1]; stages I–III): 67 ± 7 nM
- IC50 [2]: 2280 ± 679 nM
- IC50 [3]: 1250 ± 120 nM

SMILES: C[C@H]1[C@@H](O)O[C@@H]2O[C@@]3(C)CC[C@H]4[C@H](C)CC[C@@H]1[C@@]24OO3 [DHA, dihydroartemisinin]
- IC50 ([1]; stages I–III): 16 ± 2 nM
- IC50 [2]: 35 ± 12 nM
- IC50 [3]: 103 ± 30 nM

SMILES: CCN(CC)CCCC(C)Nc1ccnc2cc(Cl)ccc12 (stereo not drawn) [chloroquine]
- 99.9% PCT ([4]; Pf3D7, 10× EC50): 53 h
- Lag phase ([4]; Pf3D7, 10× EC50): 0 h
- Log (PRR) ([4]; Pf3D7, 10× EC50, over one cycle): 3.9 ± 0.2
- IC50 [1]: 157 ± 3.5 nM
- EC50 ([5]; Plasmodium falciparum, read-out: P. falciparum median EC50 (range), ex vivo clinical isolates, n = 15): 65 nM
- EC50 ([5]; read-out: P. falciparum median EC50 (range), ex vivo clinical isolates, n = 15, listed as CQ): 64.8 nM
- EC50 ([6]; Plasmodium vivax, read-out: P. vivax median EC50 (range), ex vivo clinical isolates, n = 6): 36 nM
- EC50 ([6]; read-out: P. vivax median EC50 (range), ex vivo clinical isolates, n = 6, listed as CQ): 36.4 nM

SMILES: CN(C)c1ccc2nc3ccc(=[N+](C)C)cc-3sc2c1 [Methylene Blue, methylene blue]
- IC50 ([1]; stages I–III): 110 ± 4 nM
- IC50 [2]: 52 ± 2 nM
- IC50 [3]: 63 ± 26 nM

SMILES: COc1ccc(C[C@H](N)C(=O)N[C@H]2[C@@H](O)[C@H](n3cnc4c(N(C)C)ncnc43)O[C@@H]2CO)cc1 [puromycin]
- IC50 ([1]; stages I–III): 163 ± 18 nM
- IC50 [2]: 94 ± 5 nM
- IC50 [3]: 73 ± 24 nM

- EC50 [5, 9]: 60.8 nM
- EC50 ([5]; ex vivo clinical isolates, n = 15, read-out: P. falciparum median EC50 (range)): 61 nM
- EC50 [6, 10]: 46.6 nM
- EC50 [6, 11]: 47 nM
SMILES: Clc1ccc2c(N3CCN(CCCN4CCN(c5ccnc6cc(Cl)ccc56)CC4)CC3)ccnc2c1 [piperaquine]

SMILES: C[C@@H]1CC[C@H]2[C@@H](C)C(=O)O[C@@H]3O[C@@]4(C)CC[C@@H]1[C@]32OO4 [artemisinin, reference compound]
- artemisinin mean FIC ± SEM ([7]; ratio MMV1557817:artemisinin 0:5): 1.00 ± 0.12
- artemisinin mean FIC ± SEM ([7]; ratio MMV1557817:artemisinin 1:4): 0.75 ± 0.07
- artemisinin mean FIC ± SEM ([7]; ratio MMV1557817:artemisinin 2:3): 0.37 ± 0.06
- artemisinin mean FIC ± SEM ([7]; ratio MMV1557817:artemisinin 3:2): 0.16 ± 0.03
- artemisinin mean FIC ± SEM ([7]; ratio MMV1557817:artemisinin 4:1): 0.06 ± 0.01
- change of susceptibility compared with parental Dd2 [8]: marginally but significantly sensitized

- EC50 [5, 9]: 10 nM
- EC50 [6, 10]: 11.2 nM
- EC50 [6, 11]: 11 nM
SMILES: OC(c1cc(C(F)(F)F)nc2c(C(F)(F)F)cccc12)C1CCCCN1 (stereo not drawn) [mefloquine]
